Test results from US9108903B2, “Amides as modulators of sodium channels” (VERTEX PHARMACEUTICALS INCORPORATED, priority 2013, dated 2015).

Each compound was assayed against human Nav1.8 (Homo sapiens (Human), UniProt Q9Y5Y9) (assay: E-VIPR optical membrane potential assay with electrical stimulation). Details: HEK cells expressing human Nav1.8.
Assay type: cell-based
Description: Assays for Detecting and Measuring NaV Inhibition Properties of Compounds E-VIPR Optical Membrane Potential Assay Method with Electrical Stimulation
Sodium channels are voltage-dependent proteins that can be activated by inducing membrane voltage changes by applying electric fields. The electrical stimulation instrument and methods of use are described in Ion Channel Assay Methods PCT/US01/21652, herein incorporated by reference and are referred to as E-VIPR. The instrument comprises a microtiter plate handler, an optical system for exciting the coumarin dye while simultaneously recording the coumarin and oxonol emissions, a waveform generator, a current- or voltage-controlled amplifier, and a device for inserting electrodes in well. Under integrated computer control, this instrument passes user-programmed electrical stimulus protocols to cells within the wells of the microtiter plate.
24 hours before the assay on E-VIPR, HEK cells expressing human Nav1.8 were seeded in 384-well poly-lysine coated plates at 15,000-20,000 cells per well. HEK cells were grown in media (exact composition is specific to each cell type and NaV subtype) supplemented with 10% FBS (Fetal Bovine Serum, qualified; GibcoBRL #16140-071) and 1% Pen-Strep (Penicillin-Streptomycin; GibcoBRL #15140-122). Cells were grown in vented cap flasks, in 90% humidity and 5% CO2.
100 mg/mL Pluronic F-127 (Sigma #P2443), in dry DMSO
Compound Plates: 384-well round bottom plate, e.g. Corning 384-well Polypropylene Round Bottom #3656
Cell Plates: 384-well tissue culture treated plate, e.g. Greiner #781091-1B
Bath1 buffer: Glucose 10 mM (1.8 g/L), Magnesium Chloride (Anhydrous), 1 mM (0.095 g/L), Calcium Chloride, 2 mM (0.222 g/L), HEPES 10 mM (2.38 g/L), Potassium Chloride, 4.5 mM (0.335 g/L), Sodium Chloride 160 mM (9.35 g/L).
Hexyl Dye Solution: Bath1 Buffer+0.5% β-cyclodextrin (make this prior to use, Sigma #C4767), 8 μM CC2-DMPE+2.5 μM DiSBAC6(3). To make the solution added volume of 10% Pluronic F127 stock equal to volumes of CC2-DMPE+DiSBAC6(3). The order of preparation was first mix Pluronic and CC2-DMPE, then added DiSBAC6(3) while vortexing, then added Bath1+β-Cyclodextrin.
1) Pre-spotted compounds (in neat DMSO) into compound plates. Vehicle control (neat DMSO), the positive control (20 mM DMSO stock tetracaine, 125 μM final in assay) and test compounds were added to each well at 160× desired final concentration in neat DMSO. Final compound plate volume was 80 μL (80-fold intermediate dilution from 1 μL DMSO spot; 160-fold final dilution after transfer to cell plate). Final DMSO concentration for all wells in assay was 0.625%.
2) Prepared Hexyl Dye Solution.
3) Prepared cell plates. On the day of the assay, medium was aspirated and cells were washed three times with 100 μL of Bath1 Solution, maintaining 25 μL residual volume in each well.
4) Dispensed 25 μL per well of Hexyl Dye Solution into cell plates. Incubated for 20-35 minutes at room temp or ambient conditions.
5) Dispensed 80 μL per well of Bath1 into compound plates. Acid Yellow-17 (1 mM) was added and Potassium Chloride was altered from 4.5 to 20 mM depending on the NaV subtype and assay sensitivity.
6) Washed cell plates three times with 100 μL per well of Bath1, leaving 25 μL of residual volume. Then transfered 25 uL per well from Compound Plates to Cell Plates. Incubated for 20-35 minutes at room temp/ambient condition.
7) Read Plate on E-VIPR. Used the current-controlled amplifier to deliver stimulation wave pulses for 10 seconds and a scan rate of 200 Hz. A pre-stimulus recording was performed for 0.5 seconds to obtain the un-stimulated intensities baseline. The stimulatory waveform was followed by 0.5 seconds of post-stimulation recording to examine the relaxation to the resting state.
Data was analyzed and reported as normalized ratios of emission intensities measured in the 460 nm and 580 nm channels. The response as a function of time was reported as the ratios obtained using the following formula: […]

Chain of human Nav1.8 (Q9Y5Y9 whole entry): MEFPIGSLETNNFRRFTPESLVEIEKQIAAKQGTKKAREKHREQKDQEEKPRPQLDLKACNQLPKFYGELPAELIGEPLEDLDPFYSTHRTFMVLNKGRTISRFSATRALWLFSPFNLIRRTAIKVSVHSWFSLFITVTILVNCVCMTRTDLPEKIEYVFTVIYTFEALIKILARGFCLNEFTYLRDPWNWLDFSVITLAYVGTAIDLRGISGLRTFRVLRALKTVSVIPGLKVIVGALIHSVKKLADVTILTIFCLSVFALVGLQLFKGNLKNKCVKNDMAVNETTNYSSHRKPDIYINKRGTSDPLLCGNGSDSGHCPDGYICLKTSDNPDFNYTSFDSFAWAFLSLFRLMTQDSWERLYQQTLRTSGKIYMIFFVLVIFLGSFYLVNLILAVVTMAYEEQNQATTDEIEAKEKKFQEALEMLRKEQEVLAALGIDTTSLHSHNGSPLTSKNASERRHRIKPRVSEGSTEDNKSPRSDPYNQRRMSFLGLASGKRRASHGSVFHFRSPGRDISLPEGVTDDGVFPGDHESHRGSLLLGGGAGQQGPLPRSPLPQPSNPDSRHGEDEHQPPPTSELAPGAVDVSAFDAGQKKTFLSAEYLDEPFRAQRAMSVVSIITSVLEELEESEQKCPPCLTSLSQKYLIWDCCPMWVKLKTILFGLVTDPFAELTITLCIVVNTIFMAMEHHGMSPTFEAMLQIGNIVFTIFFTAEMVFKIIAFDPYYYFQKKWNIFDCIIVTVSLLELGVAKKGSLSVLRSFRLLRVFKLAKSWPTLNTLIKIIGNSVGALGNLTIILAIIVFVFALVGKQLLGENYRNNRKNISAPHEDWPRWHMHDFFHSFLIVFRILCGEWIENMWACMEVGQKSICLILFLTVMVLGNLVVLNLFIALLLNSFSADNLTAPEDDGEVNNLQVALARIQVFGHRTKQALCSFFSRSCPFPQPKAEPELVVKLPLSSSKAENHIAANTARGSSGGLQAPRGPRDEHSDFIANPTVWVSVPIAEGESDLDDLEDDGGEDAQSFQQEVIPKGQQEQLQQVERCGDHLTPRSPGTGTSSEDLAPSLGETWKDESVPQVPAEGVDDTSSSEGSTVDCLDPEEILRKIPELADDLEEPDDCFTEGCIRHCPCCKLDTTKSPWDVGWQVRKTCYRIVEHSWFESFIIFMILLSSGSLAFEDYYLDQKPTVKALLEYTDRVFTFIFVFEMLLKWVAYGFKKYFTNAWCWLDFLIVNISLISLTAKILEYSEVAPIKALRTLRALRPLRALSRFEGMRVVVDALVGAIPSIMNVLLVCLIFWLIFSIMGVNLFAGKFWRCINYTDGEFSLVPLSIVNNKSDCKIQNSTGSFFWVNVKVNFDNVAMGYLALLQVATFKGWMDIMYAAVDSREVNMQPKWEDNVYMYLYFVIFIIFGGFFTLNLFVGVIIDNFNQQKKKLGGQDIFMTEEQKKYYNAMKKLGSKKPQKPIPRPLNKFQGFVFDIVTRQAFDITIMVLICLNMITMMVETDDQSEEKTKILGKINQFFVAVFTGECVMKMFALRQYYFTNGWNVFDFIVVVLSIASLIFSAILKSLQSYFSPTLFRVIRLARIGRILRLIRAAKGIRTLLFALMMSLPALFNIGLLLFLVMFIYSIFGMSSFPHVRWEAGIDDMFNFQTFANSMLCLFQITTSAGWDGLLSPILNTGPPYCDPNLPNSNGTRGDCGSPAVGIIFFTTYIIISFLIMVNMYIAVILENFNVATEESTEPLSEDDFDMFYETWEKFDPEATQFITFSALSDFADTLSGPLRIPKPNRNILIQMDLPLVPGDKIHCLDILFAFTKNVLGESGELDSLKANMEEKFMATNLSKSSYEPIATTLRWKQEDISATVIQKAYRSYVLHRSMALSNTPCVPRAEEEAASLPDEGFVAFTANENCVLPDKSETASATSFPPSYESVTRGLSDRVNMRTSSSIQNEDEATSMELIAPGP

Structure (SMILES)	IC50
O=C(O)c1ccc(NC(=O)c2cc(Cl)c(Cl)cc2Oc2ccc(OCC(F)(F)F)cc2)cc1 [Compound 17, 4-(4,5-dichloro-2-(4-(2,2,2-trifluoroethoxy)phenoxy)benzamido)benzoic acid]	62 nM
O=C(O)c1ccc(NC(=O)c2cc(Cl)c(Cl)cc2Oc2ccccc2OC(F)F)cc1 [Compound 19, 4-(4,5-dichloro-2-(2-(difluoromethoxy)phenoxy)benzamido)benzoic acid]	66 nM
COc1ccc(Oc2cc(Cl)c(Cl)cc2C(=O)Nc2ccc(C(=O)O)cc2)cc1F [Compound 22, 4-(4,5-dichloro-2-(3-fluoro-4-methoxyphenoxy)benzamido)benzoic acid]	78 nM
O=C(O)c1ccc(NC(=O)c2cc(Cl)c(Cl)cc2Oc2ccc(F)cc2Cl)cc1 [Compound 23, 4-(4,5-dichloro-2-(2-chloro-4-fluorophenoxy)benzamido)benzoic acid]	33 nM
O=C(O)c1ccc(NC(=O)c2cc(Cl)c(Cl)cc2Oc2ccc(F)cc2F)cc1 [Compound 24, 4-(4,5-dichloro-2-(2,4-difluorophenoxy)benzamido)benzoic acid]	53 nM
COc1ccc(Oc2cc(Cl)c(Cl)cc2C(=O)Nc2ccc(C(=O)O)cc2)c(Cl)c1 [Compound 25, 4-(4,5-dichloro-2-(2-chloro-4-methoxyphenoxy)benzamido)benzoic acid]	92 nM
Cc1cc(F)ccc1Oc1ccc(C(F)(F)F)cc1C(=O)Nc1ccc(C(=O)O)cc1 [Compound 29, 4-(2-(4-fluoro-2-methylphenoxy)-5-(trifluoromethyl)benzamido)benzoic acid]	245 nM
O=C(O)c1ccc(NC(=O)c2cc(Cl)c(Cl)cc2Oc2ccc(F)cc2)cn1 [Compound 30, 5-(4,5-dichloro-2-(4-fluorophenoxy)benzamido)picolinic acid]	34 nM
O=C(O)c1ccc(NC(=O)c2cc(Cl)c(Cl)cc2Oc2ccccc2)cn1 [Compound 33, 5-(4,5-dichloro-2-phenoxybenzamido)picolinic acid]	190 nM
COc1ccc(Oc2cc(Cl)c(Cl)cc2C(=O)Nc2ccc(C(=O)O)nc2)c(F)c1 [Compound 34, 5-(4,5-dichloro-2-(2-fluoro-4-methoxyphenoxy)benzamido)picolinic acid]	52 nM
O=C(O)c1ccc(NC(=O)c2cc(Cl)c(Cl)cc2Oc2ccc(OCC(F)(F)F)cc2)cn1 [Compound 35, 5-(4,5-dichloro-2-(4-(2,2,2-trifluoroethoxy)phenoxy)benzamido)picolinic acid]	50 nM
COc1cc(Cl)ccc1Oc1cc(Cl)c(Cl)cc1C(=O)Nc1ccc(C(=O)O)nc1 [Compound 36, 5-(4,5-dichloro-2-(4-chloro-2-methoxyphenoxy)benzamido)picolinic acid]	39 nM
O=C(O)c1ccc(NC(=O)c2cc(Cl)c(Cl)cc2Oc2ccccc2OC(F)F)cn1 [Compound 37, 5-(4,5-dichloro-2-(2-(difluoromethoxy)phenoxy)benzamido)picolinic acid]	46 nM
Cc1cc(Cl)ccc1Oc1cc(Cl)c(Cl)cc1C(=O)Nc1ccc(C(=O)O)nc1 [Compound 38, 5-(4,5-dichloro-2-(4-chloro-2-methylphenoxy)benzamido)picolinic acid]	74 nM
COc1ccc(Oc2cc(Cl)c(Cl)cc2C(=O)Nc2ccc(C(=O)O)nc2)cc1F [Compound 40, 5-(4,5-dichloro-2-(3-fluoro-4-methoxyphenoxy)benzamido)picolinic acid]	34 nM
COc1ccc(Oc2cc(Cl)c(Cl)cc2C(=O)Nc2ccc(C(=O)O)nc2)c(Cl)c1 [Compound 43, 5-(4,5-dichloro-2-(2-chloro-4-methoxyphenoxy)benzamido)picolinic acid]	65 nM
COc1ccccc1Oc1cc(C(F)(F)F)cc(C(F)(F)F)c1C(=O)Nc1ccc(C(=O)O)nc1 [Compound 45, 5-(2-(2-methoxyphenoxy)-4,6-bis(trifluoromethyl)benzamido)picolinic acid]	64 nM
COc1ccc(Oc2cc(C(F)(F)F)cc(C(F)(F)F)c2C(=O)Nc2ccc(C(=O)O)nc2)cc1 [Compound 46, 5-(2-(4-methoxyphenoxy)-4,6-bis(trifluoromethyl)benzamido)picolinic acid]	66 nM
Cc1cc(F)ccc1Oc1cc(C(F)(F)F)cc(C(F)(F)F)c1C(=O)Nc1ccc(C(=O)O)nc1 [Compound 47, 5-(2-(4-fluoro-2-methylphenoxy)-4,6-bis(trifluoromethyl)benzamido)picolinic acid]	42 nM
O=C(O)c1ccc(NC(=O)c2c(Oc3ccc(F)cc3)cc(C(F)(F)F)cc2C(F)(F)F)cn1 [Compound 50, 5-(2-(4-fluorophenoxy)-4,6-bis(trifluoromethyl)benzamido)picolinic acid]	130 nM

Compounds with a lower IC50, results first:

IC50	Structure (SMILES)
11 nM	COc1cc(Cl)ccc1Oc1cc(Cl)c(Cl)cc1C(=O)Nc1ccc(C(=O)O)cc1 [Compound 18, 4-(4,5-dichloro-2-(4-chloro-2-methoxyphenoxy)benzamido)benzoic acid]
24 nM	Cc1cc(Cl)ccc1Oc1cc(Cl)c(Cl)cc1C(=O)Nc1ccc(C(=O)O)cc1 [Compound 20, 4-(4,5-dichloro-2-(4-chloro-2-methylphenoxy)benzamido)benzoic acid]
27 nM	COc1ccc(Oc2cc(Cl)c(Cl)cc2C(=O)Nc2ccc(C(=O)O)cc2)c(OC)c1 [Compound 21, 4-(4,5-dichloro-2-(2,4-dimethoxyphenoxy)benzamido)benzoic acid]
24 nM	O=C(O)c1ccc(NC(=O)c2cc(Cl)c(Cl)cc2Oc2ccc(OC(F)(F)F)cc2)cc1 [Compound 26, 4-(4,5-dichloro-2-(4-(trifluoromethoxy)phenoxy)benzamido)benzoic acid]
20 nM	COc1cc(F)ccc1Oc1cc(C(F)(F)C(F)(F)F)ccc1C(=O)Nc1ccc(C(=O)O)cc1 [Compound 27, 4-(2-(4-fluoro-2-methoxyphenoxy)-4-(perfluoroethyl)benzamido)benzoic acid]
11 nM	Cc1cc(F)ccc1Oc1cc(Cl)c(Cl)cc1C(=O)Nc1ccc(C(=O)O)nc1 [Compound 32, 5-(4,5-dichloro-2-(4-fluoro-2-methylphenoxy)benzamido)picolinic acid]
15 nM	COc1ccc(Oc2cc(Cl)c(Cl)cc2C(=O)Nc2ccc(C(=O)O)nc2)c(OC)c1 [Compound 39, 5-(4,5-dichloro-2-(2,4-dimethoxyphenoxy)benzamido)picolinic acid]
12 nM	O=C(O)c1ccc(NC(=O)c2cc(Cl)c(Cl)cc2Oc2ccc(F)cc2Cl)cn1 [Compound 41, 5-(4,5-dichloro-2-(2-chloro-4-fluorophenoxy)benzamido)picolinic acid]
31 nM	O=C(O)c1ccc(NC(=O)c2cc(Cl)c(Cl)cc2Oc2ccc(F)cc2F)cn1 [Compound 42, 5-(4,5-dichloro-2-(2,4-difluorophenoxy)benzamido)picolinic acid]
20 nM	O=C(O)c1ccc(NC(=O)c2cc(Cl)c(Cl)cc2Oc2ccc(OC(F)(F)F)cc2)cn1 [Compound 44, 5-(4,5-dichloro-2-(4-(trifluoromethoxy)phenoxy)benzamido)picolinic acid]
14 nM	COc1cc(F)ccc1Oc1cc(C(F)(F)F)cc(C(F)(F)F)c1C(=O)Nc1ccc(C(=O)O)nc1 [Compound 48, 5-(2-(4-fluoro-2-methoxyphenoxy)-4,6-bis(trifluoromethyl)benzamido)picolinic acid]
6 nM	COc1ccc(Oc2cc(C(F)(F)F)cc(C(F)(F)F)c2C(=O)Nc2ccc(C(=O)O)nc2)c(OC)c1 [Compound 49, 5-(2-(2,4-dimethoxyphenoxy)-4,6-bis(trifluoromethyl)benzamido)picolinic acid]
